Drawing on patent US10626112B2, “Heterocyclic sulfonamide derivative and medicine comprising same” (EA PHARMA CO., LTD., priority 2014, dated 2020), this text covers IC50 for 23 compounds.

Sequence of human TRPA1 (O75762 whole entry): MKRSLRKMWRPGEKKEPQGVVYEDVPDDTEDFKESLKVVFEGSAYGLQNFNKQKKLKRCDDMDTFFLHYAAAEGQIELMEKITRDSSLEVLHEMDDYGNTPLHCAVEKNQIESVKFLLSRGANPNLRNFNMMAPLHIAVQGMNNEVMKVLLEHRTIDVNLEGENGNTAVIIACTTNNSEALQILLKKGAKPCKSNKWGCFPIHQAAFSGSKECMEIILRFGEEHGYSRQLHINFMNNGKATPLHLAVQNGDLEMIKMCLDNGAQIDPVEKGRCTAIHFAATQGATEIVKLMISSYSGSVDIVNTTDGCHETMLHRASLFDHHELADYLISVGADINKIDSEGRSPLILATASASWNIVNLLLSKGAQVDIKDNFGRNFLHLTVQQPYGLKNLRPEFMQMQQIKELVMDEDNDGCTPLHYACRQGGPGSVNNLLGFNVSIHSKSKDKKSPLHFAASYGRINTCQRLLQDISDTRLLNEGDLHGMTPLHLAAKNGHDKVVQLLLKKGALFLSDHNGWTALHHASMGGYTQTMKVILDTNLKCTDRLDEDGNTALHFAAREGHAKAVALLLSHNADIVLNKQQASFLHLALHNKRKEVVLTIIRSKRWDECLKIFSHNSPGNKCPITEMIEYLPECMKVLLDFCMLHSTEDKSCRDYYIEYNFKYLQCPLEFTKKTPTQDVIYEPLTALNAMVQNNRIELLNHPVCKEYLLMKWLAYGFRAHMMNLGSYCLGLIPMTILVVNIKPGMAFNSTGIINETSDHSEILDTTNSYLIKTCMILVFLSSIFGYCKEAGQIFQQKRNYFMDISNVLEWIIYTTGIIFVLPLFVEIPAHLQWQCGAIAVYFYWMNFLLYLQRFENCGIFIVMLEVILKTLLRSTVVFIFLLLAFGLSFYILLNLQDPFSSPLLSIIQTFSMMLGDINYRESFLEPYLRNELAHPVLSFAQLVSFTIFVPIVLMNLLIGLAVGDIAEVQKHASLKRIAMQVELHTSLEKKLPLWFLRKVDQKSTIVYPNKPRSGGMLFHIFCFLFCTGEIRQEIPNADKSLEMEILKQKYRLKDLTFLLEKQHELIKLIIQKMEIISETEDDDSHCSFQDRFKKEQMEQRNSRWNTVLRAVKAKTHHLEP

The assay deals with human TRPA1 (Homo sapiens (Human), UniProt O75762). Kind of assay: Measurement of TRPA1 antagonist activity (1): intracellular calcium increase. It is filed as cell-based. As to conditions: 293T cells transfected with human TRPA1 expression plasmid; allylisothiocyanate 20 μM stimulation; intracellular calcium fluorescence; read-out: hTRPA1 IC50. The source says:
Measurement of TRPA1 Antagonist Activity (1)
Human TRPA1 Expression Plasmid
As cDNA encoding human TRPA1 (GenBank accession No. […]), a commercially available product was purchased (manufactured by Kazusa DNA Research Institute, clone No.: pFN21AB7348, item No.: FHC07217). Using this as a template, full-length human TRPA1 gene was amplified using the primer sequences shown below, by reaction using DNA polymerase (manufactured by Stratagene, trade name: PfuUltra High-Fidelity DNA Polymerase).
A recognition site (underlined) of restriction enzyme HindIII was added to the 5′ side, and XbaI site (underlined) was added to the 3′ side, and GTT of the template sequence was changed to termination codon TAG (bold). The obtained double stranded DNA was enzyme-digested with HindIII and XbaI, and introduced into the multicloning site of expression plasmid pcDNA3.1/zeo(+) (manufactured by Invitrogen) to construct a human TRPA1 expression plasmid.
Human embryonic kidney-derived 293T cells were cultured in Dulbecco's Modified Eagle Medium containing 10% fetal bovine serum, 10 unit penicillin, and 10 μg streptomycin, plated on a petri dish having a diameter of 10 cm at 3×10^6 cells, and cultured for 24 hr in a CO2 incubator. A reduced serum medium (manufactured by Invitrogen, trade name: OPTI-MEM, 600 μL), a gene transfer reagent (manufactured by Mirus Bio, trade name: Mirus TransIT-293, 18 μL), and human TRPA1 expression plasmid (6 μg) were mixed, the total amount of the mixture was added to the cells on the petri dish to allow for gene transfer. The cells were recovered about for 8 hr later, plated on a poly-D-lysine coated 384 well black/clear bottom plate at 12,000 cells/well, and cultured overnight.
Measurement of Intracellular Calcium Increase
The 384 well plate was recovered, and the medium was removed. A calcium-bonded fluorescent indicator (manufactured by Molecular Device, trade name: Calcium4 Assay Kit, 38 μL) dissolved in assay buffer (1×HBSS, 20 mM HEPES, pH 7.2) was added, and the cells were stained in a CO2 incubator for 1 hr. The cells were taken out at room temperature, stood for not less than 15 min, a test substance (10 μL) was added by a platereader FDSS7000 (Hamamatsu Photonics K.K.) equipped with a 384ch dispenser. After 10 min, allylisothiocyanate (12 μL) was further added at a final concentration of 20 μM, and changes in the relative fluorescence intensity after addition of allylisothiocyanate were measured for 5 min.
Test Substance Preparation
The test substance was dissolved in dimethyl sulfoxide and serially diluted with an assay buffer containing 0.1% bovine serum albumin (1×HBSS, 20 mM HEPES, pH 7.2) to a 4.8-fold concentration of the evaluation concentration. Allylisothiocyanate, which is a known TRPA1 activator, was dissolved in dimethyl sulfoxide to 100 mM, and further diluted 5-fold (100 μM) of the final concentration, like the test substance.
Calculation of Antagonist Activity
Under the test substance-free conditions, the maximum variation range of the fluorescence intensity before and after allylisothiocyanate stimulation was defined to be 100% activity rate, and the variation range before and after buffer stimulation was defined as 0% activity rate. The activity rate on addition of the test substance was determined, and the numerical value obtained by subtracting the activity rate from 100 was defined to be an inhibitory rate. IC50, which is the concentration of the test substance necessary for reaching the 50% inhibitory rate, was calculated from the sigmoid approximate curve by a spreadsheet software Excel-Fit.
`O=C(NCc1cccc(OCc2ccc(C(F)(F)F)cc2)c1)[C@@H]1CCCN1S(=O)(=O)c1cc2ccc(F)cc2o1` [Example 40, (2S)-1-(6-fluorobenzofuran-2-yl)sulfonyl-N-[[3-[[4-(trifluoromethyl)phenyl]methoxy]-phenyl]methyl]pyrrolidine-2-carboxamide]: the concentration for half-maximal inhibition (IC50) (commonly the midpoint of a concentration-inhibition curve) worked out at 96 nM.

As to `O=C(NCc1ccnc(-c2cc(Cl)cs2)c1)[C@@H]1CCCN1S(=O)(=O)c1cc2ccccc2o1` [Example 277, (2S)-1-(benzofuran-2-ylsulfonyl)-N-[[2-(4-chloro-2-thienyl)-4-pyridyl]methyl]pyrrolidine-2-carboxamide], the IC50 was determined as 89 nM.

For the compound `C[C@H](NS(=O)(=O)c1cc2cc(F)ccc2o1)C(=O)NCc1cccc(-c2ncc(C(F)(F)F)cn2)c1` [Example 232, (2S)-2-[(5-fluorobenzofuran-2-yl)sulfonylamino]-N-[[3-[5-(trifluoromethyl)pyrimidin-2-yl]phenyl]methyl]propanamide], the IC50 was 77 nM. In the case of `COc1ccc(-c2cc(CNC(=O)[C@@H]3CCCN3S(=O)(=O)c3cc4cc(F)ccc4o3)ccn2)cc1` [Example 131, (2S)-1-(5-fluorobenzofuran-2-yl)sulfonyl-N-[[2-(4-methoxyphenyl)-4-pyridyl]methyl]pyrrolidine-2-carboxamide] it was 32 nM; in that of `O=C(NCc1ccnc(-c2ccc(F)cc2)c1)[C@@H]1CCCN1S(=O)(=O)c1cc2ccccc2o1` [Example 114, (2S)-1-(benzofuran-2-ylsulfonyl)-N-[[2-(4-fluorophenyl)-4-pyridyl]methyl]pyrrolidine-2-carboxamide], 32 nM; in that of `CC(C)(C)OC(=O)c1ccc(CNC(=O)[C@@H]2CCCN2S(=O)(=O)c2cc3ccccc3o2)cc1-c1ccc(C(F)(F)F)cc1` [Example 336, tert-butyl 4-[[[(2S)-1-(benzofuran-2-ylsulfonyl)pyrrolidine-2-carbonyl]amino]methyl]-2-[4-(trifluoromethyl)phenyl]-benzoate], 5.8 nM.

In the case of `Cc1ccc(-c2ccnc(CNC(=O)[C@@H]3CCCN3S(=O)(=O)c3cc4ccccc4o3)c2)cc1` [Example 284, (2S)-1-(benzofuran-2-ylsulfonyl)-N-[[4-(p-tolyl)-2-pyridyl]methyl]pyrrolidine-2-carboxamide], the IC50 came to 76 nM. Regarding `O=C(NCc1ccnc(NCc2ccc(C(F)(F)F)cc2)c1)[C@@H]1CCCN1S(=O)(=O)c1cc2ccccc2o1` [Example 186, (2S)-1-(benzofuran-2-ylsulfonyl)-N-[[2-[[4-(trifluoromethyl)phenyl]methylamino]-4-pyridyl]methyl]pyrrolidine-2-carboxamide], the IC50 was determined as 86 nM. Turning to `O=C(NCc1cc(C(F)(F)F)ccc1Cl)[C@@H]1CCCN1S(=O)(=O)c1cc2cnccc2o1` [Example 266, (2S)-N-[[2-chloro-5-(trifluoromethyl)phenyl]methyl]-1-furo[3,2-c]pyridin-2-ylsulfonyl-pyrrolidine-2-carboxamide], the IC50 was 38 nM. Turning to `C[C@H](NS(=O)(=O)c1cc2cc(F)ccc2o1)C(=O)NCc1cc(-c2ccc(C(F)(F)F)cc2)cnn1` [Example 250, (2S)-2-[(5-fluorobenzofuran-2-yl)sulfonylamino]-N-[[5-[4-(trifluoromethyl)phenyl]-pyridazin-3-yl]methyl]propanamide], the IC50 was 72 nM.

Turning to `O=C(NCc1cc(-c2ccc(C(F)(F)F)cc2)ncn1)[C@@H]1CCCN1S(=O)(=O)c1cc2cc(F)ccc2o1` [Example 90, (2S)-1-(5-fluorobenzofuran-2-yl)sulfonyl-N-[[6-[4-(trifluoromethyl)phenyl]pyrimidin-4-yl]methyl]pyrrolidine-2-carboxamide], the IC50 was 0.84 nM. `O=C(NCc1cccc(-c2ccc(N3CCOCC3)nc2)c1)[C@@H]1CCCN1S(=O)(=O)c1cc2cc(F)ccc2o1` [Example 161, (2S)-1-(5-fluorobenzofuran-2-yl)sulfonyl-N-[[3-(6-morpholino-3-pyridyl)phenyl]methyl]-pyrrolidine-2-carboxamide]: the IC50 stood at 27 nM. Turning to `C[C@H](NS(=O)(=O)c1cc2cc(F)ccc2o1)C(=O)NCc1cc(-c2cnc(C(F)(F)F)cn2)ccn1` [Example 243, (2S)-2-[(5-fluorobenzofuran-2-yl)sulfonylamino]-N-[[4-[5-(trifluoromethyl)pyrazin-2-yl]-2-pyridyl]methyl]propanamide], the IC50 came out at 55 nM.

Regarding `O=C(NCc1ccc2occc2c1)[C@@H]1CCCN1S(=O)(=O)c1cc2cc(F)ccc2o1` [Example 74, (2S)-N-(benzofuran-5-ylmethyl)-1-(5-fluorobenzofuran-2-yl)sulfonyl-pyrrolidine-2-carboxamide], the IC50 was 110 nM. Under `O=C(NCc1cccc(OCc2ccc(C(F)(F)F)cc2)c1)[C@@H]1CCCN1S(=O)(=O)c1cc2cccc(F)c2o1` [Example 39, (2S)-1-(7-fluorobenzofuran-2-yl)sulfonyl-N-[[3-[[4-(trifluoromethyl)phenyl]methoxy]-phenyl]methyl]pyrrolidine-2-carboxamide] stands 190 nM; under `Cn1nc(C(F)(F)F)cc1-c1cc(CNC(=O)[C@@H]2CCCN2S(=O)(=O)c2cc3ccccc3o2)ccn1` [Example 127, (2S)-1-(benzofuran-2-ylsulfonyl)-N-[[2-[2-methyl-5-(trifluoromethyl)pyrazol-3-yl]-4-pyridyl]methyl]pyrrolidine-2-carboxamide], 25 nM. In the case of `O=C(NCc1cc(-c2ccc(C(F)(F)F)cn2)ccn1)[C@@H]1CC(F)(F)CN1S(=O)(=O)c1cc2cc(F)ccc2o1` [Example 229, (2S)-4,4-difluoro-1-(5-fluorobenzofuran-2-yl)sulfonyl-N-[[4-[5-(trifluoromethyl)-2-pyridyl]-2-pyridyl]methyl]pyrrolidine-2-carboxamide] it was 12 nM. In the case of `O=C(NCc1ccc(-c2cccc(F)c2)cc1)[C@@H]1CCCN1S(=O)(=O)c1cc2ccccc2o1` [Example 169, (2S)-1-(benzofuran-2-ylsulfonyl)-N-[[4-(3-fluorophenyl)phenyl]methyl]-pyrrolidine-2-carboxamide], the IC50 was 150 nM. In the case of `O=C(NCc1cccc(-c2ccc(C(F)(F)F)cc2)c1)[C@@H]1CCCN1S(=O)(=O)c1cc2cc(F)ccc2o1` [Example 157, (2S)-1-(5-fluorobenzofuran-2-yl)sulfonyl-N-[[3-[4-(trifluoromethyl)phenyl]-phenyl]methyl]pyrrolidine-2-carboxamide] it was 0.48 nM. In the case of `O=C(NCc1ccnc(-c2cc3ccccc3[nH]2)c1)[C@@H]1CCCN1S(=O)(=O)c1cc2ccccc2o1` [Example 176, (2S)-1-(benzofuran-2-ylsulfonyl)-N-[[2-(1H-indol-2-yl)-4-pyridyl]methyl]pyrrolidine-2-carboxamide] it was 320 nM.

For the compound `O=C(NCc1cc(-c2ccc(C(F)(F)F)cn2)ccn1)[C@@H]1CCCN1S(=O)(=O)c1cc2cc(F)ccc2o1` [Example 223, (2S)-1-(5-fluorobenzofuran-2-yl)sulfonyl-N-[[4-[5-(trifluoromethyl)-2-pyridyl]-2-pyridyl]methyl]pyrrolidine-2-carboxamide], the IC50 came out at 0.88 nM. In the case of `CN(C)C(=O)c1ccc(CNC(=O)[C@@H]2CCCN2S(=O)(=O)c2cc3ccccc3o2)cc1-c1ccc(C(F)(F)F)cc1` [Example 337, (2S)-1-(benzofuran-2-ylsulfonyl)-N-[[4-(dimethylcarbamoyl)-3-[4-(trifluoromethyl)phenyl]-phenyl]methyl]pyrrolidine-2-carboxamide] it was 22 nM. For the compound `O=C(NCc1cncc(-c2ccc(C(F)(F)F)cc2)c1)[C@@H]1CCCN1S(=O)(=O)c1cc2cc(F)ccc2o1` [Example 139, (2S)-1-(5-fluorobenzofuran-2-yl)sulfonyl-N-[[5-[4-(trifluoromethyl)phenyl]-3-pyridyl]methyl]pyrrolidine-2-carboxamide], the concentration for half-maximal inhibition (IC50) was found to be 3 nM.
